Structures can show the parent of a compound that is named as a salt.
Key:
[1] = biological target: AMPA receptor; assay: 3H-AMPA binding (in vitro receptor affinity test); set-up: species or system rat; details: cerebral cortex membranes from male Wistar rats; 3H-AMPA 5 nM; 30 minutes at 2° C.; read-out: IC50 (concentration of the test substance which inhibits the specific binding of 3H-AMPA by 50%)
Source text: In an in vitro activity (receptor affinity) test, the chemical compounds of the present invention have been tested for their affinity for the AMPA receptor.
L-glutamate (GLU) is the major excitatory neurotransmitter in the mammalian central nervous system. From electro-physiological- and binding studies, there appear to be at least three subtypes of GLU receptors, tentatively named N-methyl-D-aspartate (NMDA) receptors, quisqualate receptors and kainate receptors. AMPA has been known for several years to be a potent and selective agonist at the traditionally named quisqualate receptors. Activation of quisqualate receptors by AMPA is associated with Na^+influx and K^+efflux leading to depolarisation. ^3H-AMPA is a selective radioligand for labelling the ionotropic quisqualate (AMPA) receptors.
Preparations are performed at 0-4° C. unless otherwise indicated. Cerebral cortex from male Wistar rats (150-200 g) is homogenised for 5-10 sec in 20 ml Tris-HCl (30 mM, pH 7.4) using an Ultra-Turrax™ homogeniser. The suspension is centrifuged at 27,000×g for 15 minutes and the pellet is washed three times with buffer (centrifuged at 27,000×g for 10 minutes). The washed pellet is homogenised in 20 ml of buffer and incubated on a water bath (of 37° C.) for 30 minutes to remove endogenous glutamate and then centrifuged for 10 minutes at 27,000×g. The pellet is then homogenised in buffer and centrifuged at for 10 minutes at 27,000×g. The final pellet is resuspended in 30 ml buffer and the preparation is frozen and stored at −20° C.
The membrane preparation is thawed and centrifuged at 2° C. for 10 minutes at 27,000×g. […] Non-specific binding is determined using L-glutamate (0.6 mM, final concentration).
After incubation the 550 μl samples are added 5 ml of ice-cold buffer and poured directly onto Whatman™ GF/C glass fibre filters under suction and immediately washed with 5 ml of ice-cold buffer. […] The amount of radioactivity on the filters is determined by conventional liquid scintillation counting. […]

| Compound | melting point | IC50 [1] [nM] |
| --- | --- | --- |
| CN1CCc2c(-c3ccc(S(=O)(=O)N(C)C)cc3)cc3c(c2C1)NC(=O)C3=NOC1CCOC1=O (centres unmarked) (as salt: hydrochloride) [8-methyl-5-(4-(N,N-dimethylsulfamoyl)phenyl)-6-7-8-9-tetrahydro-1H-pyrrolo[3,2-h]-isoquinoline-2,3-dione-3-O-(3-(2-oxo)tetrahydrofuryl) oxime, hydrochloride] | 245 °C (dec.) |  |
| CN1CCc2c(-c3ccc(S(=O)(=O)N(C)C)cc3)cc3c(c2C1)NC(=O)C3=NOC(CCO)C(=O)O (centres unmarked) (as salt: sodium) [8-methyl-5-(4-(N,N-dimethylsulfamoyl)phenyl)-6-7-8-9-tetrahydro-1H-pyrrolo[3,2-h]-isoquinoline-2,3-dione-3-O-(4-hydroxybutyric acid-2-yl)oxime sodium salt] | > 200 °C (dec.) |  |
| CN1CCc2c(-c3ccc(S(=O)(=O)N(C)C)cc3)cc3c(c2C1)NC(=O)C3=NOC1CCOC1=O (centres unmarked) [8-methyl-5-(4-(N,N-dimethylsulfamoyl)phenyl)-6-7-8-9-tetrahydro-1H-pyrrolo[3,2-h]-isoquinoline-2,3-dione-3-O-(3-(2-oxo)tetrahydrofuryl) oxime, hydrochloride] |  | 150 |
| CN1CCc2c(-c3ccc(S(=O)(=O)N(C)C)cc3)cc3c(c2C1)NC(=O)C3=NOC(CCO)C(=O)O (centres unmarked) [8-methyl-5-(4-(N,N-dimethylsulfamoyl)phenyl)-6-7-8-9-tetrahydro-1H-pyrrolo[3,2-h]-isoquinoline-2,3-dione-3-O-(4-hydroxybutyric acid-2-yl)oxime sodium salt] |  | 50 |
| CCOC(=O)CO/N=C1\C(=O)Nc2c1cc(-c1ccc(S(=O)(=O)N(C)C)cc1)c1c2CN(C)CC1 [8-methyl-5-(4-(N,N-dimethylsulfamoyl)phenyl-6,7,8,9-tetrahydro-1H-pyrrolo [3,2-h]isoquinoline-2,3-dione-3-O-(ethoxycarbonylmethyl) oxime] |  | 100 |
